Experimental data as given in PMC9930359, “Cytotoxicity of the methanol extracts and compounds of Brucea antidysenterica (Simaroubaceae) towards multifactorial drug-resistant human cancer cell lines” (BMC Complementary Medicine and Therapies, 2023).

Assays:
CCRF-CEM leukemia cells = experiment: Resazurin reduction assay (RRA), cytotoxicity; format: cell-based; details: Homo sapiens, 72 h
Excerpt: (§1) In this work, 9 cancer cell lines with various drug resistance patterns as well as AML12 hepatocytes as normal control cell line were used. […] The AML12 hepatocytes were used for the comparison of the activities of the samples with HepG2 [40]. […] The RPMI-1640 medium was used for the culture of CCRF-CEM and CEM/ADR5000 cells whilst DMEM medium was used for carcinoma cells. The culture media were supplemented (complete medium) with 10% fetal bovine serum and 1% penicillin/streptomycin (Invitrogen, Eggenstein, Germany). […] To maintain the resistance phenotype of the resistant carcinoma cell lines such as MDA-MB-231/BCRP and HCT116 p53^−/−, and U87MG.ΔEGFR cells, the complete DMEM medium containing geneticin at 800 ng/ml and 400 µg/ml, respectively were used [41, 42].
(§2) Cells were cultured in a standard condition consisted of a humidified 5% CO2 atmosphere and an incubation temperature of 37 °C. The tested concentration ranges were 0.63—80 µg/mL for the botanicals and 0.78—100 µM for phytochemicals. The incubation time of the treated cells was 72 h, and the fluorescence was measured with Infinite M2000 Pro™ plate reader (Tecan, Crailsheim, Germany). The wavelengths used were 544 nm for the excitation and 590 nm for the emission. […] The degree of resistance (D.R.) was set as the ratio of the IC50 values of samples in the resistant cell line vs that of corresponding sensitive cell line. The selectivity index (S.I.) was the ratio of the IC50 value of AML12 hepatocytes vs. that of HepG2 cells [13, 48].

CEM/ADR5000 cells = experiment: Resazurin reduction assay (RRA), cytotoxicity; format: cell-based, human
Description: (§3) The RPMI-1640 medium was used for the culture of CCRF-CEM and CEM/ADR5000 cells whilst DMEM medium was used for carcinoma cells. The culture media were supplemented (complete medium) with 10% fetal bovine serum and 1% penicillin/streptomycin (Invitrogen, Eggenstein, Germany). […] To maintain the resistance phenotype of the resistant carcinoma cell lines such as MDA-MB-231/BCRP and HCT116 p53^−/−, and U87MG.ΔEGFR cells, the complete DMEM medium containing geneticin at 800 ng/ml and 400 µg/ml, respectively were used [41, 42].
as §2

MDA-MB-231-pcDNA cells = experiment: Resazurin reduction assay (RRA), cytotoxicity; format: cell-based; details: Homo sapiens, 72 h
Excerpt: as §1, §2

HCT116 p53+/+ cells = experiment: Resazurin reduction assay (RRA), cytotoxicity; format: cell-based; details: Homo sapiens, HCT-116, 72 h
Excerpt: as §1, §2

HCT116 p53−/− cells = experiment: Resazurin reduction assay (RRA), cytotoxicity; format: cell-based, human; details: Homo sapiens, HCT-116; HCT116 p53−/−, 72 h
Description: as §3, §2

U87MG cells = experiment: Resazurin reduction assay (RRA), cytotoxicity; format: cell-based; details: Homo sapiens, U-87 MG, 72 h
Excerpt: as §1, §2

U87MG.ΔEGFR cells = experiment: Resazurin reduction assay (RRA), cytotoxicity; format: cell-based, human; details: Homo sapiens; U87MG.ΔEGFR, 72 h
Description: as §3, §2

HepG2 cells = experiment: Resazurin reduction assay (RRA), cytotoxicity; format: cell-based; details: Homo sapiens, HepG2, 72 h
Excerpt: as §1, §2

AML12 hepatocytes = experiment: Resazurin reduction assay (RRA), cytotoxicity on normal hepatocytes; format: cell-based
Description: as §3, §2

[1] = tested on: A-549 lung carcinoma cells, MCF-7 breast cancer cells, and PC-3 prostate cancer cells; details: three reported cancer cell lines ref Makong et al. [30]; cited from earlier work
MDA-MB-231-BCRP cells = experiment: Resazurin reduction assay (RRA), cytotoxicity; details: Homo sapiens, MDA-MB-231/BCRP, 72 h
Description: as §3, §2

COc1cc([C@H]2Oc3c(OC)cc4ccc(=O)oc4c3O[C@@H]2CO)cc(OC)c1O [Compound 6, cleomiscosin C]
IC50 (CCRF-CEM leukemia cells): 23.2 ± 1.63 µM | IC50 (CEM/ADR5000 cells; Homo sapiens, CEM/ADR5000, 72 h): > 100 µM | Degree of resistance (D.R.) (CEM/ADR5000 cells; ratio of IC50 CEM/ADR5000 vs CCRF-CEM): > 4.31 | IC50 (MDA-MB-231-pcDNA cells): > 100 µM | IC50 (HCT116 p53+/+ cells): > 100 µM | IC50 (HCT116 p53−/− cells): > 100 µM | IC50 (U87MG cells): > 100 µM | IC50 (U87MG.ΔEGFR cells): > 100 µM | IC50 (HepG2 cells): 15.5 ± 1.06 µM | IC50 (AML12 hepatocytes; Mus musculus, AML12 normal hepatocytes, 72 h): > 100 µM | Selectivity index (S.I.) (AML12 hepatocytes; ratio of IC50 in AML12 vs IC50 in HepG2 cells): > 6.46 | melting point: 254 to 256 °C | cytotoxic activity [1]: not active | IC50 (MDA-MB-231-BCRP cells): > 100 µM
